Results taken from patent publication US9670157B2, “Benzylamine derivatives” (KALVISTA PHARMACEUTICALS LIMITED, priority 2013, dated 2017).

Legend:
[1] = molecular target: Human plasma kallikrein (Homo sapiens (Human), UniProt P03952); experiment: Determination of the IC50 for Plasma Kallikrein; assay type: biochemical; settings: 37° C., fluorogenic substrate H-DPro-Phe-Arg-AFC; read-out: IC50 (human PKal)
Protocol: Human plasma kallikrein (Protogen) was incubated at 37° C. with the fluorogenic substrate H-DPro-Phe-Arg-AFC and various concentrations of the test compound. Residual enzyme activity (initial rate of reaction) was determined by measuring the change in optical absorbance at 410 nm and the IC50 value for the test compound was determined.

[2] = molecular target: Human KLK1 (Homo sapiens (Human), UniProt P06870); experiment: Determination of the IC50 for KLK1; assay type: biochemical; settings: 37° C., fluorogenic substrate H-DVal-Leu-Arg-AFC
How it was run: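 KLK1 inhibition was measured in vitro following standard published methods. Human KLK1 (Callbiochem) was incubated at 37° C. with the fluorogenic substrate H-DVal-Leu-Arg-AFC in the presence of a range of test compound concentrations. Residual enzyme activity, taken as the initial reaction rate, was followed by the change in optical absorbance at 410 nm, and IC50 values were derived.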

Chain of Human plasma kallikrein (P03952 391-638): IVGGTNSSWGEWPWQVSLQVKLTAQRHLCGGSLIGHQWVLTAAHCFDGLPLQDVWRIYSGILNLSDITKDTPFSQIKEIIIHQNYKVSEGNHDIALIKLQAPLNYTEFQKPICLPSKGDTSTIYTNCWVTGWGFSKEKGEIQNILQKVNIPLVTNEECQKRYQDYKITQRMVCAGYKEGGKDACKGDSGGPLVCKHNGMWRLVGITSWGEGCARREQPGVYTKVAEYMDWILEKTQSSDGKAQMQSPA
Chain of Human plasma kallikrein (P03952 20-390 partner): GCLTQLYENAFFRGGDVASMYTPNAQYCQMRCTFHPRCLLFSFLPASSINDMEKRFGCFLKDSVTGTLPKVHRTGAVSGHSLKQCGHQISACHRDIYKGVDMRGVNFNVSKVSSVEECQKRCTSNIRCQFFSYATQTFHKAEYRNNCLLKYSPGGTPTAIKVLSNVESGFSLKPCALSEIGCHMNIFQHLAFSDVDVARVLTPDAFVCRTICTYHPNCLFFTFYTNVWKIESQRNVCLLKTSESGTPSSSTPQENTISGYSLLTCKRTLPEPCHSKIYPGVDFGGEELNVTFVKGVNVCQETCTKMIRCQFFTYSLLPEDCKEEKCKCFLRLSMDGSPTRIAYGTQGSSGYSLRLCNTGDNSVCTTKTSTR
Chain of Human KLK1 (P06870 25-262): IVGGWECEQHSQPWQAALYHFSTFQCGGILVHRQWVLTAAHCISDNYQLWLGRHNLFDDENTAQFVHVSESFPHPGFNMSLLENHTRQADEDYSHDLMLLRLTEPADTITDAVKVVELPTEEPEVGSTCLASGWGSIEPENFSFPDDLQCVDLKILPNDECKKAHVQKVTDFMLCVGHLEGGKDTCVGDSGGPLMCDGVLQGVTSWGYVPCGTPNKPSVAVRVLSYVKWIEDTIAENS

Row | Compound | IC50 [1] | IC50 [2]
1 | Cc1c(C(=O)NCc2ccc(CN)cc2)ccn1Cc1csc(-c2ccccc2)n1 [Example 25, 2-Methyl-1-(2-phenyl-thiazol-4-ylmethyl)-1H-pyrrole-3-carboxylic acid 4-aminomethyl-benzylamide] | 1.33 µM | > 10 µM
2 | Cc1cnn(Cc2ccc(Cn3c(C)cc(C(=O)NCc4ccc(CN)cc4)c3C)cc2)c1 [Example 96, 2,5-Dimethyl-1-[4-(4-methyl-pyrazol-1-ylmethyl)-benzyl]-1H-pyrrole-3-carboxylic acid 4-aminomethyl-benzylamide] | 0.063 µM | > 10 µM
3 | Cc1cc(C(=O)NCc2ccc(CN)cc2)c(C)n1Cc1csc(-c2ccc(Cl)cc2)n1 [Example 28, 2,5-Dimethyl-1-[2-(4-chlorophenyl)-thiazol-4-ylmethyl]-1H-pyrrole-3-carboxylic acid 4-aminomethyl-benzylamide] | 1.33 µM | > 10 µM
4 | Cc1cc(C(=O)NCc2ccc(CN)cc2)c(C)n1Cc1coc(-c2ccccc2)n1 [Example 18, 2,5-Methyl-1-(2-phenyl-oxazol-4-ylmethyl)-1H-pyrrole-3-carboxylic acid 4-aminomethyl-benzylamide] | 0.435 µM | > 10 µM
5 | Cc1cc(C(=O)NCc2ccc(CN)cc2)c(C)n1Cc1csc(-c2ccccc2)c1 [Example 10, 2,5-Dimethyl-1-(5-phenyl-thiophen-3-ylmethyl)-1H-pyrrole-3-carboxylic acid 4-aminomethyl-benzylamide] | 0.571 µM | > 10 µM
6 | Cc1cc(C(=O)NCc2ccc(CN)cc2)n(C)c1Cc1ccccc1 [Example 75, 5-Benzyl-1,4-dimethyl-1H-pyrrole-2-carboxylic acid 4-aminomethyl-benzylamide] | 4.5 µM | > 10 µM
7 | Cc1ccc(-c2nc(Cn3c(C)cc(C(=O)NCc4ccc(CN)cc4)c3C)cs2)cc1 [Example 35, 2,5-Dimethyl-1-(2-p-tolyl-thiazol-4-ylmethyl)-1H-pyrrole-3-carboxylic acid 4-aminomethyl-benzylamide] | 2.1 µM | > 10 µM
8 | COc1cc(CN)ccc1CNC(=O)c1cc(C)n(Cc2csc(-c3ccccc3)n2)c1C [Example 54, 2,5-Dimethyl-1-(2-phenyl-thiazol-4-ylmethyl)-1H-pyrrole-3-carboxylic acid 4-aminomethyl-2-methoxy-benzylamide] | 0.03 µM | > 10 µM
9 | Cc1cc(C(=O)NCc2ccc(CN)cc2)c(C)n1Cc1ccc(-c2ccccc2)s1 [Example 22, 2,5-Dimethyl-1-(5-phenyl-thiophen-2-ylmethyl)-1H-pyrrole-3-carboxylic acid 4-aminomethyl-benzylamide] | 3.27 µM | > 10 µM
10 | NC1(c2ccc(CNC(=O)c3cnn(Cc4ccc(Cn5ccccc5=O)cc4)c3)cc2)CC1 [Example 89, 1-[4-(2-Oxo-2H-pyridin-1-ylmethyl)-benzyl]-1H-pyrazole-4-carboxylic acid 4-(1-amino-cyclopropyl)-benzylamide] | 0.226 µM | > 10 µM
11 | CCOc1ccc(Cn2c(C)cc(C(=O)NCc3ccc(CN)cc3)c2C)cc1 [Example 59, 1-(4-Ethoxy-benzyl)-2,5-dimethyl-1H-pyrrole-3-carboxylic acid 4-aminomethyl-benzylamide] | 2.74 µM | > 10 µM
12 | Cc1cc(C(=O)NCc2ccc(CN)cc2)c(C)n1Cc1cccc(-c2cccnc2)c1 [Example 71, 2,5-Dimethyl-1-(3-pyridin-3-yl-benzyl)-1H-pyrrole-3-carboxylic acid 4-aminomethyl-benzylamide] | 0.702 µM | > 10 µM
13 | Cc1cnn(Cc2ccc(Cn3cc(C(=O)NCc4ccc(C5(N)CC5)cc4)nn3)cc2)c1 [Example 110, 1-[4-(4-Methyl-pyrazol-1-ylmethyl)-benzyl]-1H-[1,2,3]triazole-4-carboxylic acid 4-(1-amino-cyclopropyl)-benzylamide] | 2.58 µM | > 10 µM
14 | Cc1cnn(Cc2ccc(Cn3cnc(C(=O)NCc4c(C)cc(CN)cc4C)c3)cc2)c1 [Example 112, 1-[4-(4-Methyl-pyrazol-1-ylmethyl)-benzyl]-1H-imidazole-4-carboxylic acid 4-aminomethyl-2,6-dimethyl-benzylamide] | 0.002 µM | > 10 µM
15 | Cc1cc(C(=O)NCc2ccc(CN)cc2)c(C)n1Cc1ccc(CN)cc1 [Example 67, 1-(4-Aminomethyl-benzyl)-2,5-dimethyl-1H-pyrrole-3-carboxylic acid 4-aminomethyl-benzylamide] | 3.5 µM | 6.97 µM
16 | CCn1c(C(=O)NCc2ccc(CN)cc2)cc(C)c1Cc1ccc(Cn2cc(C)cn2)cc1 [Example 121, 1-Ethyl-4-methyl-5-[4-(4-methyl-pyrazol-1-ylmethyl)-benzyl]-1H-pyrrole-2-carboxylic acid 4-aminomethyl-benzylamide] | 0.155 µM | > 10 µM

Row | Compound | IC50 [1] | IC50 [2]
17 | Cc1cc(C(=O)NCc2ccc(CN)cc2)c(C)n1Cc1cccc(C#N)c1 [Example 64, 1-(3-Cyano-benzyl)-2,5-dimethyl-1H-pyrrole-3-carboxylic acid 4-aminomethyl-benzylamide] | 6.25 µM | > 10 µM
18 | Cc1cc(C(=O)NCc2ccc(CN)cc2F)c(C)n1Cc1csc(-c2ccccc2)n1 [Example 47, 2,5-Dimethyl-1-(2-phenyl-thiazol-4-ylmethyl)-1H-pyrrole-3-carboxylic acid 4-aminomethyl-2-fluoro-benzylamide] | 0.074 µM | > 10 µM
19 | CCOc1ccc(-c2nc(Cn3c(C)cc(C(=O)NCc4ccc(CN)cc4)c3C)cs2)cc1 [Example 41, 1-[2-(4-Ethoxy-phenyl)-thiazol-4-ylmethyl]-2,5-dimethyl-1H-pyrrole-3-carboxylic acid 4-aminomethyl-benzylamide] | 4.7 µM | > 10 µM
20 | Cc1nn(Cc2csc(-c3ccccc3)n2)cc1C(=O)NCc1ccc(CN)cc1 [Example 81, 3-Methyl-1-(2-phenyl-thiazol-4-ylmethyl)-1H-pyrazole-4-carboxylic acid 4-aminomethyl-benzylamide] | 0.695 µM | > 10 µM
21 | Cc1cnn(Cc2ccc(Cn3cnc(C(=O)NCc4ccc(CN)cc4)c3)cc2)c1 [Example 104, 1-[4-(4-Methyl-pyrazol-1-ylmethyl)-benzyl]-1H-imidazole-4-carboxylic acid 4-aminomethyl-benzylamide] | 0.03 µM | > 10 µM
22 | Cc1cc(C(=O)NCc2ccc(CN)cc2)c(C)n1Cc1cccc(N2CCOCC2)n1 [Example 15, 2,5-Dimethyl-1-(6-morpholin-4-yl-pyridin-2-ylmethyl)-1H-pyrrole-3-carboxylic acid 4-aminomethyl-benzylamide] | 5.69 µM | > 10 µM
23 | Cc1cc(C(=O)N[C@H](C)c2ccc(CN)cc2)c(C)n1Cc1csc(-c2ccccc2)n1 [Example 42, 2,5-Dimethyl-1-(2-phenyl-thiazol-4-ylmethyl)-1H-pyrrole-3-carboxylic acid [(R)-1-(4-aminomethyl-phenyl)-ethyl]-amide] | 0.953 µM | > 10 µM
24 | Cc1cccc(-c2nc(Cn3c(C)cc(C(=O)NCc4ccc(CN)cc4)c3C)cs2)c1 [Example 30, 2,5-Dimethyl-1-(2-m-tolyl-thiazol-4-ylmethyl)-1H-pyrrole-3-carboxylic acid 4-aminomethyl-benzylamide] | 0.773 µM | > 10 µM
25 | CCn1c(C(=O)NCc2ccc(CN)cc2)cc(C)c1Cc1ccccc1 [Example 77, 5-Benzyl-1-ethyl-4-methyl-1H-pyrrole-2-carboxylic acid 4-aminomethyl-benzylamide] | 3.72 µM | > 10 µM
26 | Cc1cc(C(=O)NC2(c3ccc(CN)cc3)CC2)c(C)n1Cc1csc(-c2ccccc2)n1 [Example 52, 2,5-Dimethyl-1-(2-phenyl-thiazol-4-ylmethyl)-1H-pyrrole-3-carboxylic acid [1-(4-aminomethyl-phenyl)-cyclopropyl]-amide] | 0.475 µM | > 10 µM
27 | Cc1cc(C(=O)NCc2ccc(C3(N)CC3)cc2)c(C)n1Cc1csc(-c2ccccc2)n1 [Example 4, 2,5-Dimethyl-1-(2-phenyl-thiazol-4-ylmethyl)-1H-pyrrole-3-carboxylic acid 4-(1-amino-cyclopropyl)-benzylamide] | 0.121 µM | > 10 µM
28 | CCn1c(C(=O)NCc2ccc(CN)cc2)cc(C)c1Cc1ccc(Cn2ccccc2=O)cc1 [Example 122, 1-Ethyl-4-methyl-5-[4-(2-oxo-2H-pyridin-1-ylmethyl)-benzyl]-1H-pyrrole-2-carboxylic acid 4-aminomethyl-benzylamide] | 0.151 µM | > 10 µM
29 | CC(C)NC(=O)c1ccc(Cn2cc(C(=O)NCc3ccc(CN)cc3)cn2)cc1 [Example 79, 1-(4-Isopropylcarbamoyl-benzyl)-1H-pyrazole-4-carboxylic acid 4-aminomethyl-benzylamide] | 5.55 µM | > 10 µM
30 | Cc1cc(C(=O)NCc2ccc(CN)cc2Cl)c(C)n1Cc1ccccc1 [Example 56, 1-Benzyl-2,5-dimethyl-1H-pyrrole-3-carboxylic acid 4-aminomethyl-2-chloro-benzylamide] | 3.86 µM | 5.48 µM
31 | Cc1cc(CN)cc(C)c1CNC(=O)c1cc(C)n(Cc2csc(-c3ccccc3)n2)c1C [Example 3, 2,5-Dimethyl-1-(2-phenyl-thiazol-4-ylmethyl)-1H-pyrrole-3-carboxylic acid 4-aminomethyl-2,6-dimethyl-benzylamide] | 0.006 µM | > 10 µM
